Test results reported in patent US10287617B2, “Methods for in vitro—in vivo efficacy determination” (COLORADO STATE UNIVERSITY RESEARCH FOUNDATION, priority 2014, dated 2019).
“And” between values parts separate entries of the source, which are not always exact repeats. Equal values may be shown once.

What was measured:
[1] = test system: M. tuberculosis H37Rv; assay type: cell-based; conditions: SB-P17G-A20 with rifampicin
[2] = test system: M. tuberculosis H37Rv; assay type: cell-based, Mycobacterium tuberculosis; conditions: 2×10^9 cells plated on 1.6 μg/mL (10 times MIC)
[3] = test system: M. tuberculosis Erdman; assay type: in vivo; conditions: SB-P17G-A20 50 mg/kg IP bid, INH 20 mg/kg IP qd, days 5 to 14 post-infection

| Compound | enhancement of activity in the presence of the other drug [1] | ΣFIC [1] | spontaneous resistant mutants [2] | reduction in bacterial load in the lungs [3] | reduction in bacterial load in the spleen [3] |
| --- | --- | --- | --- | --- | --- |
| CN(C)c1cc2nc(C3CCCCC3)[nH]c2cc1NC(=O)c1ccc(OC(F)(F)F)cc1 [SB-P17G-A20] | 2-4 fold | 0.75 | No mutants where observed | 1.73±0.24 log10 CFU and 1.73 log10 CFU | 2.68 log10 CFU and 2.68±0.48 log10 CFU |
| NNC(=O)c1ccncc1 [Isoniazid, reference compound] |  |  |  | below the level of detection | below the level of detection |
| CCCCOC(=O)Nc1cc2nc(C3CCCCC3)[nH]c2cc1N(C)C [SB-P17G-C2] |  |  |  | no significant reduction | no significant reduction |
